Measurements as given in the supplement of paper PMC3974653.
Structures can show the parent of a compound that is named as a salt.

System: MTT (mouse pheochromocytoma)
Assay: IC50 of cell viability (ATP content)
Conditions: (24 or 48 h)
Summary of the method: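 The IC50 was fitted with a four-parameter logistic equation to normalised CellTiter-Glo ATP luminescence from MTT mouse pheochromocytoma cells. These cells, in white 1536-well plates, had been treated for 24 or 48 hrs with library compounds at 8 final concentrations between 0.5 nM and 46 µM, and luminescence was read after 15 minutes. Positive-control wells served as 100% and DMSO wells as 0%.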

Row | Structure (SMILES) | IC50 of cell viability [µM]
1 | N[S+](=O)([O-])c1ccc(C(=O)O)cc1 [CARZENIDUM] | > 46
2 | CC1CCC2=C3N1\C=C(C(O)=O)/C(=O)C3=CC(=C2)F (stereo unspecified) [FLUMEQUINE] | > 46
3 | CC1=NN=C2C\N=C(\C3=C(Cl)C=CC=C3)C4=C(C=CC(=C4)Cl)[N]12 [TRIAZOLAM] | > 46
4 | CNC(=O)Oc1cccc2ccccc12 [Carbaryl] | > 46
5 | CCCN1C[C@H](CSC)C[C@@H]2c3cccc4[nH]cc(c34)C[C@H]21 [PERGOLIDE METHANESULFONATE] | > 46
6 | C[C@]12CCC(=O)C(=O)C1CC[C@@H]1[C@@H]2CC[C@]2(C)C(=O)CC[C@@H]12 (stereo partly specified) [FORMESTANUM] | > 46
7 | C[C@]12CCC3C(CCC/4=C/C(=O)CCC34)C1CC[C@@]2(O)C#C (stereo partly specified) [NORETHINDRONE] | > 46
8 | COc1cc(O)cc(O)c1 [Flamenol] | > 46
9 | CO/N=C1\CN(c2nc3c(cc2F)c(=O)c(C(=O)O)cn3C2CC2)CC1CN.C[S+](=O)([O-])O (stereo unspecified) [GEMIFLOXACIN MESYLATE] | > 46
10 | CN1C(CSCC(F)(F)F)Nc2cc(Cl)c([S+](N)(=O)[O-])cc2[S+]1(=O)[O-] (stereo unspecified) [Polythiazide] | > 46
11 | O=C1N(c2ccccc2)c2ccccc2C1(Cc1ccncc1)Cc1ccncc1 [Linopirdine dihydrochloride] | > 46
12 | CCCCCCCCCCCCCCCCCC[N+](C)(C)CCC[Si](OC)(OC)OC | > 46
13 | CCCCCCCCCCCCCCCC(=O)OC/C=C(C)/C=C/C=C(C)/C=C/C1=C(C)CCCC1(C)C [Retinyl palmitate] | > 46
14 | Cc1cc(CC(=O)O)n(C)c1C(=O)c1ccc(Cl)cc1 [ZOMEPIRAC SODIUM] | > 46
15 | C(=C/c1ccccc1)/CN1CCN(C(c2ccccc2)c2ccccc2)CC1 [Cinnarizine] | > 46
16 | CSCCC(N)C(=O)O (stereo unspecified) [METHIONINE] | > 46
17 | CCO[C@H]1O[C@@H]([C@H](COCc2ccccc2)OCc2ccccc2)[C@@H](OCc2ccccc2)[C@@H]1O [Tribenoside] | > 46
18 | CCOc1ccc(NC(=O)CC(C)O)cc1 (stereo unspecified) [Bucetin] | > 46
19 | Cc1ccc(-c2cc(C(F)(F)F)nn2-c2ccc([S+](N)(=O)[O-])cc2)cc1 [Celecoxib] | > 46
20 | C\C1=C\C(=O)OC2=CC(=CC=C12)OCC#C [GIPARMENUM] | > 46
21 | CO[C@H]1/C=C/O[C@@]2(C)Oc3c(C)c(O)c4c(c3C2=O)C2=NC3(CCN(CC(C)C)CC3)NC2=C(NC(=O)/C(C)=C\C=C\[C@H](C)[C@H](O)[C@@H](C)[C@@H](O)[C@@H](C)[C@H](OC(C)=O)[C@@H]1C)C4=O [Rifabutin] | > 46
22 | CCCN(CCC)[S+](=O)([O-])c1ccc(C(=O)O)cc1 [Probenecid] | > 46

Row | Structure (SMILES) | IC50 of cell viability [µM]
23 | CC1CN(CCN1)C2=CC3=C(C=C2F)C(=O)\C(=C/N3C4=CC=C(F)C=C4F)C(O)=O (stereo unspecified) [Temafloxacin] | > 46
24 | Clc1ccc(C(Cn2ccnc2)OCc2ccsc2Cl)c(Cl)c1 (stereo unspecified) [TIOCONAZOLE] | > 46
25 | O=C(O)Cc1csc(-c2ccc(Cl)cc2)n1 [Fenclozic acid] | > 46
26 | C[C@@H](CNC1CCCCC1)OC(=O)c1ccccc1 [Hexylcaine hydrochloride] | > 46
27 | COc1ccc2c(c1OC)CN1CCc3cc4c(cc3[C@H]1C2)OCO4 [(d,l)-Tetrahydroberberine] | > 46
28 | COc1ccccc1OCC1CNC(=O)O1 (stereo unspecified) [Mephenoxalone] | > 46
29 | COc1ccc2c(c1OC)C(=O)O[C@H]2[C@@H]1c2cc3c(cc2CCN1C)OCO3 [(1S,9R)-beta-HYDRASTINE] | > 46
30 | C=CCNC(N)=S [Allylthiourea] | > 46
31 | c1ccc2c(CC3=NCCN3)cccc2c1 [NAPHAZOLINE] | > 46
32 | CCCOC1=C(C=CC=C1)\C2=N\C(=O)C3=C([NH]N=N3)N2 [Zaprinast] | > 46
33 | CCOCCOC(C)=O [2-Ethoxyethyl acetate] | > 46
34 | CC(C)C(=O)c1c(C(C)C)nn2ccccc12 [Ibudilast] | > 46
35 | O=C1OC(c2cc(I)c(O)c(I)c2)(c2cc(I)c(O)c(I)c2)c2ccccc21 [Tetraiodophenolphthalein] | > 46
36 | CC(C)\C1=C(/CN(C)[C@@H](C)CC2=CC=CC=C2)N(C)N(C3=CC=CC=C3)C1=O [Famprofazone] | > 46
37 | O=C(O)/C=C\C(=O)O.O=C(O)/C=C\C(=O)O.c1cc(CN2CCCCC2)cc(OCCCNc2nc3ccccc3s2)c1 | > 46
38 | CCOC(=O)c1cccc(N)c1 [TRICAINE METHANESULFONATE] | > 46
39 | N[C@@H](C(=O)N[C@H]1[C@H]2SC\C(=C(/N2C1=O)C(O)=O)CSC3=C[NH]N=N3)C4=CC=C(O)C=C4 [CEFATRIZINE] | > 46
40 | O=S(=O)([O-])Oc1ccc(C(c2ccc(OS(=O)(=O)[O-])cc2)c2ccccn2)cc1 [Picosulfate sodium] | > 46
41 | C=CCN(C1=NCCN1)c1c(Cl)cccc1Cl [Alinidine] | > 46
42 | CC(C)=CCC/C(C)=C/CC/C(C)=C/CC/C=C(\C)CC/C=C(\C)CCC=C(C)C [SQUALENE] | > 46
43 | O=C(CO)C(O)C(O)C(O)CO [D-LEVULOSE] | > 46
44 | COc1ccc2c3c1O[C@H]1[C@@H](O)C=C[C@H]4C(C2)NCCC341 (single isomer, unassigned; (-)) [(-)-NORCODEINE] | > 46

Row | Structure (SMILES) | IC50 of cell viability [µM]
45 | CN/C(=N/C#N)NCCSCc1csc(N=C(N)N)n1 [TIOTIDINE] | > 46
46 | COC1C(OC(=O)/C=C/C=C/C=C/C=C/C(=O)O)CCC2(CO2)C1C1(C)OC1CC=C(C)C (stereo unspecified) [FUMAGILLIN] | > 46
47 | COc1ccc(C[C@@H]2c3cc(OC)c(OC)cc3CC[N@@+]2(C)CCC(=O)OCCCCCOC(=O)CC[N@+]2(C)CCc3cc(OC)c(OC)cc3[C@H]2Cc2ccc(OC)c(OC)c2)cc1OC.O=S(=O)([O-])c1ccccc1.O=S(=O)([O-])c1ccccc1 [Atracurium besylate] | > 46
48 | Cc1scc2c1N(C(=O)CN1CCN(C)CC1)c1ccccc1NC2=O [TELENZEPINE] | > 46
49 | N=C(N)NCCN1CCCCCCC1 [Guanethidine sulfate] | > 46
50 | ClC1C(Cl)C(Cl)C(Cl)C(Cl)C1Cl (stereo unspecified) [LINDANE] | > 46
51 | O=[N+]([O-])c1cc([As](=O)(O)O)ccc1O [Roxarsone] | > 46
52 | Oc1cc(Cl)ccc1Oc1ccc(Cl)cc1Cl [Triclosan] | > 46
53 | CC(C(=O)O)c1ccc2c(c1)[nH]c1ccc(Cl)cc12 (stereo unspecified) [CARPROFEN] | > 46
54 | CN(C)CCN1C(=O)c2ccccc2N(C)c2ccccc21 [Dibenzepina] | > 46
55 | CC(=O)C[C@H](C1=CC=C(C=C1)[N+]([O-])=O)\C2=C(/O)C3=C(OC2=O)C=CC=C3 [Acenocoumarol] | > 46
56 | O=C1[O][Bi]([OH])[O]c2ccccc21 [Bismuth subsalicylate] | > 46
57 | N[C@@H](C(=O)N[C@H]1[C@H]2SC\C(=C(/N2C1=O)C(O)=O)Cl)C3=CC=CC=C3 [Cefaclorum] | > 46
58 | Cc1ncc(CO)c(CN)c1O [Pyridoxamine dichlorohydrate] | > 46
59 | Clc1cccc(N2CCNCC2)c1 [1-(3-CHLOROPHENYL)PIPERAZINE] | > 46
60 | CN(C)CCO[C@](C)(c1ccccc1)c1ccccn1.O=C(O)CCC(=O)O [Doxylamine succinate] | > 46
61 | CN(C)CCOc1ccccc1Cc1ccccc1.Nc1ccc(C(=O)O)c(O)c1 [Phentoloxamine and PAS] | > 46
62 | C=CCOc1ccccc1OC[C@H](O)CNC(C)C [Oxprenolol hydrochloride] | > 46
63 | CC(CC=O)CCCC(C)(C)O (stereo unspecified) [HYDROXYCITRONELLAL] | > 46
64 | OC[C@@H]1O[C@](CO)(O[C@H]2O[C@H](CO)[C@@H](O)[C@H](O)[C@H]2O)[C@H](O)[C@H]1O [INULIN (HYDROXYMETHYL, C-14)] | > 46
65 | Cl.NCCS [Cysteamine hydrochloride] | > 46
66 | CC1(C)CCC(C)(C)c2cc(NC(=O)c3ccc(C(=O)O)cc3)ccc21 [TAMIBAROTENE] | > 46
